In PMC11997890, “In Vivo and In Vitro Pharmacokinetic Studies of a Dual Topoisomerase I/II Inhibitor” (ACS Pharmacology & Translational Science, 2025):

Tests used:
[1] = In vitro biotransformation of P8-D6 with pig liver fractions; assay type: in vitro ADME; settings: for formation of metabolite from P8-D6: 1 mM P8-D6, 150 min
Protocol: P8-D6 (1 mM) was incubated with postnuclear supernatant (PNS), microsomes, or S9 reaction mixture of various tissue samples (liver, kidney, lung, spleen, and colon) from different donor species (pigs, mice, rats, and humans) for 150 min (study preparation scheme supplied as Figure S5). The commercial human and rat enzymes were subjected to quality control by the supplier. Three phase I metabolites were identified. […] LC-MS and NMR spectroscopic data for the metabolites are given in Supporting Information. Based on the structural characteristics, the metabolites were named as follows: P8-DO (4), P8-D6 N-oxide (6), and P8-D6 mono (8). All metabolites were synthesized to confirm the postulated structure (chapter Synthesis of Metabolites). The extent of metabolism during in vitro incubation was highly dependent on the species (pig > mouse > rat > human) (Figure ).
For all phase I metabolism studies (except cell cultures), a 0.3 mL reaction mixture consisting of 1 mM substrate (P8-D6, P8-D6 mono, P8-D6 N-oxide), 1 mM NADPH as a cofactor, 0.67 mg/mL protein from homogenized tissue or subcellular fractions, respectively (except recombinant enzymes, where 0.5 mg/mL was used), and PBS buffer (pH 7.4) was used. All experiments were performed in biological triplicates. The FDA Guidance for Industry highlights 7 CYP isoenzymes (1A2, 2B6, 2C8, 2C9, 2C19, 2D6, and 3A4/5) which routinely should be tested for metabolism during drug development. Table S1 presents an overview of the tissue material and species as well as the CYP enzymes used in this study. All reactions were carried out at 37 °C in a shaking water bath for 150 min before they were stopped with 0.3 mL of an ice-cold mixture of acetonitrile/methanol (1:1). The suspension was vortexed for 30 s and centrifuged at 15000 g for 5 min, and finally, 10 μL of the supernatant was injected into the HPLC. Control samples were prepared with buffer instead of either protein/tissue, cofactor, or substrate.

[2] = In vivo tissue distribution of P8-D6 and metabolites; set-up: species or system Sprague–Dawley rats
Protocol: Another part of this in vivo study was to identify in vivo metabolites and determine the tissue distribution of P8-D6 (study preparation scheme supplied as Figure S5). […] P8-D6 N-oxide reached c max/p.o. of 0.054 μM at 30 min, and all following results were below the limit of quantification (LoQ).
P8-D6 and P8-D6 mono each constituted about 20–30% of the detected derivatives. The extent of metabolism was, to a certain degree, organ-dependent (spleen > colon > lungs > kidney > liver). The highest concentration of P8-DO was found in the spleen at 8.7 nmol/g and the lowest in the liver at 4.5 nmol/g.
(§1) Effects of the diet were reduced by fasting the rats overnight prior to P8-D6 application. Blood samples were taken at 5, 15, 30, 60, 120, 180, 300, 360, and 600 min after i.v. application or 30, 60, 90, 120, 240, and 600 min after p.o. application. Immediately afterward, the plasma was collected by centrifugation at 2000 g for 10 min. The rats were housed in metabolic cages to collect the urine in specially attached containers. Urine and feces samples were collected every 2 h. The rats were euthanized by CO2 inhalation. The harvested organs (kidney, spleen, lung, liver, and colon) were weighed and submerged in liquid nitrogen. All collected samples were stored at −80 °C until analysis.
100 μL of each tissue homogenate/PNS was mixed with 200 μL of an ice-cold mixture of acetonitrile/methanol (2:1) and stirred in the vortex for 5 min. The suspension was centrifuged at 20000 g for 10 min, and 50 μL of the supernatant was injected into the HPLC. The samples from six mice per group were analyzed. Calibration/control samples were prepared the same way with organ samples collected from equal Sprague–Dawley rats from nonpharmacological studies prepared according to chapter Tissue/Enzymes. For calibration, the matrix was spiked with a defined concentration of the analyte. Final concentrations ranged from 0 to 10 nmol/g. Triple determinations were performed and prepared on each respective day. LoD: 0.81 nmol/g (spleen), 0.33 nmol/g (liver), 0.48 nmol/g (lungs), 1.14 nmol/g (colon), 0.38 nmol/g (kidney); LoQ: 2.69 nmol/g (spleen), 1.09 nmol/g (liver), 1.59 nmol/g (lungs), 3.80 nmol/g (colon), 1.28 nmol/g (kidney).

[3] = In vivo elimination via urine and feces over 24 h; set-up: species or system Sprague–Dawley rats; settings: for P8-D6 (plus glucuronide) exceeds metabolite in feces: 24 h cumulative
Protocol: To investigate the elimination of P8-D6 and its phase I and phase II metabolites, urine and feces samples were collected over the course of 24 h and examined.
To examine possible in vivo phase II metabolites, an enzymatic hydrolysis with glucuronidase/sulfatase from Helix pomatia was performed with both urine and feces samples. […] No sulfate phase II metabolites were observed.
as §1
Thirty mg of feces was added to 100 μL of a 0.15 M NaCl solution and stirred in the vortex for 30 s. Afterward, 200 μL of an ice-cold mixture of acetonitrile/methanol (2:1) was added before vortexing again for 30 s. Finally, the suspension was centrifuged at 15000 g for 5 min. 40 μL of the supernatant was injected into the HPLC. The samples from three mice per group were analyzed. Calibration/control samples were prepared the same way with fecal samples collected ahead of the in vivo study. For calibration, the matrix was spiked with a defined concentration of the analyte. Final concentrations ranged from 0 nmol/g to 200 nmol/g. Triple determinations were performed and prepared on each respective day. 50 μL of urine was mixed with 100 μL of an ice-cold mixture of acetonitrile/methanol (2:1) and stirred in the vortex for 5 min. The suspension was centrifuged at 15000 g for 5 min, and 40 μL of the supernatant was injected into the HPLC. Calibration/control samples were prepared the same way with urine samples collected ahead of the in vivo study. For calibration, the matrix was spiked with a defined concentration of the analyte. Final concentrations ranged from 0 to 10 μM. Triple determinations were performed and prepared on each respective day. LoD: 0.02 μM (urine), 0.22 nmol/g (feces); LoQ: 0.06 μM (urine), 0.72 nmol/g (feces). Additionally, to identify phase II metabolites, feces (30 mg) and urine (50 μL) from the in vivo study were incubated with arylsulfatase (at pH 6.2) and glucuronidase (at pH 4.5) from Helix pomatia in acetate buffer for 2 h in a 37 °C water bath. For reference, feces and urine without enzyme and 4-nitrophenylsulfate and 4-nitrophenylglucuronide were incubated as well. All experiments were performed in biological triplicates.

[4] = spleen, liver, lungs, kidney, colon after P8-D6

CNCCOc1nc2c3cnccc3cc(-c3cc(OC)c(OC)c(OC)c3)c2c2ccncc12 [P8-D6 mono]
formation of metabolite from P8-D6 ([1]; pig liver microsomes): 1.31%
extent of formation lower than P8-D6 N-oxide ([1]; porcine liver microsomes): 21.9 fold
proportion of all derivatives detected in tissue [2, 4]: 20–30%
P8-D6 (plus glucuronide) exceeds metabolite in feces [3]: 3.7 fold

COc1cc(-c2cc3ccncc3c3nc(OCC[N+](C)(C)[O-])c4cnccc4c23)cc(OC)c1OC [P8-D6 N-oxide]
formation of metabolite from P8-D6 ([1]; pig liver PNS): 6.88%
formation of metabolite from P8-D6 ([1]; pig liver S9-fraction): 7.58%
formation of metabolite from P8-D6 ([1]; pig liver microsomes): 28.67%
detection in tissue [2, 4]: no P8-D6 N-oxide was observed at all
P8-D6 (plus glucuronide) exceeds metabolite in feces [3]: 31 fold
concentration in feces ([3]; after 2 h): 2.90 nmol/g
detectable in feces up to ([3]; rat, in vivo): up to 8 h

COc1cc(-c2cc3ccncc3c3[nH]c(=O)c4cnccc4c23)cc(OC)c1OC [P8-DO]
formation of metabolite from P8-D6 ([1]; pig liver microsomes): 0.13%
concentration in tissue ([2]; liver (lowest)): 4.5 nmol/g
concentration in tissue ([2]; spleen (highest)): 8.7 nmol/g
proportion of all derivatives detected in tissue [2, 4]: about 50%
detection in urine and feces ([3]; 24 h): absent

COc1cc(-c2cc3ccncc3c3nc(OCCN(C)C)c4cnccc4c23)cc(OC)c1OC [P8-D6, 6-(N,N-dimethyl-2-aminoethoxy)-11-(3,4,5-trimethoxyphenyl)-pyrido[3,4-c][1,9]-phenanthroline]
proportion of all derivatives detected in tissue [2, 4]: 20–30%
